By EC50 is commonly meant the concentration needed to bring the measured effect to its halfway point.

For the assay, the target named is T1, GPCR GPR40 (Homo sapiens, UniProt O14842).
T1 construct: expressed in transfected cells; host or cells: HEK293
The assay is described as follows: In-vitro FLIPR assay with recombinant cells which express the GPCR GPR40. To be noted: intracellular Ca2+ in recombinant HEK293 cells expressing GPR40, 100% = 10 μM linoleic acid. Type of assay: cell-based. On the procedure: In-Vitro FLIPR Assay with Recombinant Cells which Express the GPCR GPR40
Function-testing assays were carried out by means of the FLIPR technique (“fluorescence imaging plate reader”, Molecular Devices Corp.). For this purpose, agonist-induced alterations in the intracellular concentration of Ca^2+ in recombinant HEK293 cells which express the GPCR GPR40 were determined.
For the investigations, cells were seeded in 96-well microtiter plates (60 000 cells/well) and left to grow overnight. The medium was removed and the cells were incubated in buffer which contained the fluorescent dye Fluo-4. After this loading with dye, the cells were washed, test substance was added and alterations in the intracellular Ca^2+ concentration were measured in the FLIPR instrument. Results have been depicted as percentage alteration relative to the control (0%: no test substance added; 100%: 10 μM reference agonist linoleic acid added) used to calculate dose/activity plots and EC50 values were determined.

T1 sequence (O14842 whole entry): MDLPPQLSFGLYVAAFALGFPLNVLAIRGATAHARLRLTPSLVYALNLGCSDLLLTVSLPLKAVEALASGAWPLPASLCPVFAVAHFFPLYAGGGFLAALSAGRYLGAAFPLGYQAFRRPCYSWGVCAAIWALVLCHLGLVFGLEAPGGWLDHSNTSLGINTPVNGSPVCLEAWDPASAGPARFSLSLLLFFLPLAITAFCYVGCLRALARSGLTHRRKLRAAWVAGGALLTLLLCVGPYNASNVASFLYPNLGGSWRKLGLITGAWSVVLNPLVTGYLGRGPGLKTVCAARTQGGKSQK

For the molecule `O=C(O)CCc1ccc(NC(=O)C(=O)Nc2ccc(Cl)cc2Cl)cc1` [compound 7], the EC50 stood at 700 nM.

For the molecule `CC(C)c1ccc(NC(=O)C(=O)Nc2ccc(CCC(=O)O)cc2)c(C(F)(F)F)c1` [compound 9], the concentration for a half-maximal effect (EC50) is 100 nM.

Take `O=C(O)CCc1ccc(NC(=O)C(=O)Nc2cc(C(F)(F)F)ccc2Br)cc1` [compound 11]: the EC50 was found to be 800 nM.

`O=C(O)CCc1ccc(NC(=O)C(=O)Nc2ccc(Br)cc2Cl)cc1` [compound 14]: the EC50 amounted to 600 nM.

As to `CC(C)c1ccc(NC(=O)C(=O)Nc2cccc(CCC(=O)O)c2)c(Br)c1` [compound 21], the EC50 came out at 16800 nM.

In the case of `O=C(O)CCc1cccc(NC(=O)C(=O)Nc2c(Cl)c(Cl)cc(Cl)c2Cl)c1` [compound 24], the EC50 worked out at 60100 nM.

The values are drawn from US8518875B2, “(Carboxylalkylenephenyl)phenyloxamides, method for the production thereof and use of same as a medicament” (SANOFI, priority 2007, dated 2013).
